System: 4T1 cells
Assay: 4T1 cells injected into tail vein of BALB/c mice, lung metastasis and T-cell profiling
Type: in vivo
Procedure: There was no difference in the primary tumor size between treatment groups nor the size of recurrent tumors at 6 weeks (FIG. 9, Panel B and FIG. 8, Panel C). […] To investigate tissue specific effects, gene expression changes between treatment groups in lung and tumor tissues were analyzed by RNA-sequencing. […] To reduce the impact of TEAD inhibition on cancer cell intrinsic function such as dissemination and invasion, 4T1, a triple negative mouse mammary carcinoma cell line (Pulaski & Ostrand-Rosenberg, 2000), was injected into the tail vein of BALB/c mice that directly seed into the lung tissue. A reduction in lung metastases, as well as the suppression of inflammatory pathways, were observed (FIG. 9, Panels E and F, and FIG. 8, Panel F).
To determine early changes in the T-cell population, lung and spleen tissues of BALB/c mice that were intravenously injected with 4T1 were processed and analyzed by flow cytometry 10 days post inoculation (FIG. 9, Panel E). […] M1-like macrophages and IL12 signaling play a critical role in the crosstalk between macrophages and T-cells triggering their proliferation and differentiation of T-cell subsets that can eliminate tumor cells unlike the pro-tumor M2-like macrophages (Guerriero, 2019; Oishi et al., 2016; Shao et al., 2023). Thus, the interplay between macrophage and T-cells after iTEAD treatment is likely to play a role in the increase in CD8+ T-cell and Th1 CD4+ cell populations in the lungs.
Formalin-fixed, paraffin embedded (FFPE) lung tissue sections were stained with hematoxylin and eosin. Immunohistochemistry staining was performed on FFPE tumor and lung tissue sections. Slides were deparaffinized in xylene and rehydrated following a series of ethanol washes. Heat-induced antigen retrieval was then performed by placing slides in warmed sodium citrate buffer (pH 6.0) (Invitrogen, 005000) in a pre-heated steamer for 20 minutes. Slides were cooled at room temperature for an additional 20 minutes, prior to quenching endogenous peroxidase activity using 3% hydrogen peroxide buffer (Fisher, BP2633500) for 10 minutes. Next, slides were incubated overnight at 4° C. with either anti-CD8 (Cell Signaling Technology, #98941), anti-CD68 (Abcam, ab303565), anti-CD206 (Cell Signaling Technology, #24595), or anti-F480 (Cell Signaling Technology, #70076). Following PBS washes, the slides are then stained with a biotinylated secondary antibody using the VECTASTAIN Elite ABC-HRP Kit according to the user's manual (Vector Laboratories, PK-6101). Positive brown staining was produced by applying ImmPACT DAB EqV Substrate Kit (Vector Laboratories, SK-4103) to the slides, which were then counterstained with hematoxylin (Sigma, MHS16). Images were captured using the Olympus BX40 microscope, and positive staining was quantified manually. Immunofluorescent staining was performed on lung tissue sections. Slides were baked at 60°, deparaffinized in xylene, rehydrated, washed in DI water and incubated with 10% neutral buffered formalin (NBF) for an additional 20 minutes to increase tissue-slide retention. Epitope retrieval/microwave treatment (MWT) for all antibodies was performed by boiling slides in Antigen Retrieval buffer 6 (AR6 pH6, Akoya AR6001KT). Protein blocking is performed using antibody diluent/blocking buffer (Akoya, ARD1001EA) for 10 minutes at room temperature. […] Slides were scanned at 10× magnification using the Vectra 3.0 Automated Quantitative Pathology Imaging System (PerkinElmer/Akoya). […]

VT107
inflammatory pathways in lungs (30 mg/kg VT107 daily): suppression
lung metastases (30 mg/kg VT107 daily by oral gavage vs vehicle): reduction
T-bet staining in the lungs (IHC, week 2): significant increase
overall abundance of CD4+ and CD8+ T-cell populations (flow cytometry 10 days post inoculation): no difference
helper 1 T-cell (Th1) population (flow cytometry 10 days post inoculation, lung): increased

Source: patent publication US20250352524A1, “PREVENTION OF METASTATIC OUTGROWTH USING TEAD INHIBITORS” (Georgetown University, priority 2024, published 2025)
